Source: US12171743B2, “Forms of aticaprant” (Janssen Pharmaceuticals, Inc., priority 2022, dated 2024)

Experiments:
[1] = tested on: subjects with MDD; assay: MADRS total score, adjunctive aticaprant vs placebo in MDD (Example 8); details: for MADRS Total Score: Mean Change from Baseline (SD): aticaprant 10 mg adjunctive to SSRI/SNRI; for MADRS: LSMeans difference estimate, supplementary MMRM analysis (COVID-19 impact): data collected prior to 15 Mar. 2020
[2] = tested on: subjects with MDD; assay: SHAPS total score (anhedonia), same study; format: in vivo, human; details: for SHAPS Total Score Change from Baseline LSMean Difference (SE) Treatment-Placebo: MMRM
Excerpt: To assess a potential effect on anhedonia, an anhedonia scale may be used. For example, the Snaith-Hamilton Pleasure Scale (SHAPS) analysis is a validated scale for the measurement of anhedonia. The SHAPS is a subject completed scale in which subjects score whether or not they experience pleasure in performing a list of activities or experiences. The SHAPS is a self-reported 14-item instrument, developed for the assessment of hedonic capacity. Subjects score whether they experience pleasure in performing a list of activities or experiences. Subjects can rate the answers as 1˜4 where 1 indicates “Definitely agree”, 2 indicates “Agree”, 3 indicates “Disagree” and 4 indicates “Definitely disagree”. The subject's item responses are summed to provide a total score ranging from 14 to 56. A higher total SHAPS score indicates higher levels of current anhedonia. Physician/clinical judgment can be used to assess anhedonia separately or in conjunction with an anhedonia scale.
In some embodiments, the patient has moderate anhedonia. In other embodiments, the patient has severe anhedonia. An assessment of moderate or severe anhedonia is typically determined physician/clinical judgment and/or by one or more tests that provide insight into whether a patient has anhedonia. For example, the severity of the anhedonia may be determined using the SHAPS method. In some embodiments, a patient with moderate or severe anhedonia is considered to have a high level of anhedonia. For example, a patient with a SHAPS score of 38 or greater is considered to have moderate to severe anhedonia that can be considered a high level of anhedonia. In some embodiments, a high level of anhedonia is reflected by a SHAPS score of at least about 40, about 42, about 44, about 46, about 48, about 50, about 52, about 54, about 56, […]. A patient with mild or no anhedonia would be considered to have a low level of anhedonia that is assessed by physician/clinical judgment and/or one or more tests. For example, a patient with a SHAPS score of less than 38 is considered to have low anhedonia. In certain embodiments, a patient with mild anhedonia may have a SHAPS score of 20 to less than 38, for example, a SHAPS score of 20 to about 36, about 22 to about 36, about 24 to about 36, about 26 to about 36, about 26 to about 34, about 26 to about 32, about 26 to about 30, about 26 to about 28, about 28 to about 36, about 28 to about 36, about 30, to about 36, about 32 to about 36, about 34 to about 36, about 20 to about 34, about 22 to about 34, about 24 to about 34, about 26 to about 32, about 26 to about 30, about 26 to about 28, about 28 to about 36, about 28 to about 34, about 28 to about 32, about 28 to about 30, about 30 to about 36, about 30 to about 34, about 30 to about 32, about 32 to about 36, about 32 to about 34, or about 34 to about 36. Typically, a SHAPS score of less than 20 can be considered to correspond to normal hedonic functioning, and for purposes of this disclosure, would fall into the low category of anhedonia, e.g., a SHAPS score of less than 38.
The secondary objectives are: • i. […] To investigate the effect of aticaprant versus placebo on depression related anhedonia as assessed by the SHAPS. • iv.

[3] = eITT Analysis Set, High anhedonia (SHAPS Total Score at Treatment Baseline >=38), Treatment Week 6
[4] = fITT Analysis Set, High anhedonia (SHAPS Total Score at Treatment Baseline >=38), Treatment Week 6
[5] = fITT Analysis Set, Treatment Week 5
[6] = number of subjects, eITT Analysis Set, Treatment Baseline, N 60
[7] = number of subjects, eITT Analysis Set, Treatment Week 6, N 59
[8] = number of subjects, fITT Analysis Set, Baseline/Day 22 (before treatment), N 83
[9] = number of subjects, fITT Analysis Set, Treatment Baseline, N 83

Compound: Cc1cc(C)cc(C2CCCN2Cc2ccc(Oc3ccc(C(N)=O)cc3F)cc2)c1 (stereo not shown) [aticaprant, 3-fluoro-4-4-2-(3,5-dimethylphenyl) pyrrolidin-1-yl-methylphenoxybenzamide]
- MADRS Total Score Effect size [1, 3]: −0.38
- MADRS Total Score Mean Change to Placebo (SD pooled) [1, 3]: −3.4 (8.98)
- MADRS Total Score Effect size ([1]; eITT Analysis Set, Low anhedonia (SHAPS Total Score at Treatment Baseline >=20 and <38), Treatment Week 6): −0.11
- MADRS Total Score: Mean Change from Baseline (SD) ([1]; eITT, Treatment Week 1): −3.3
- MADRS Total Score: Mean Change from Baseline (SD) ([1]; eITT, Treatment Week 3): −5.7
- MADRS Total Score: Mean Change to Placebo (SD pooled) ([1]; eITT, Treatment Week 4): −0.9 (7.00)
- MADRS Total Score: Mean Change from Baseline (SD) ([1]; eITT, Treatment Week 4): −7.3
- MADRS Total Score: Mean Change from Baseline (SD) ([1]; eITT, Treatment Week 5): −8.4
- MADRS Total Score: Mean Change from Baseline (SD) ([1]; eITT, Treatment Week 6): −10.2 (8.44)
- MADRS: LSMeans difference estimate, supplementary MMRM analysis (COVID-19 impact) ([1]; eITT): −3.0
- MADRS Total Score Effect size [1, 4]: −0.51
- MADRS Total Score Mean Change to Placebo (SD pooled) [1, 4]: −4.6 (9.03)
- MADRS Total Score Effect size ([1]; fITT Analysis Set, Low anhedonia (SHAPS Total Score at Treatment Baseline >=20 and <38), Treatment Week 6): −0.29
- MADRS Total Score Change from Baseline LSMean Difference (SE) Treatment-Placebo ([1]; fITT Analysis Set, Treatment Week 1, MMRM): −1.6 (1.03)
- MADRS Total Score Change from Baseline LSMean Difference (SE) Treatment-Placebo ([1]; fITT Analysis Set, Treatment Week 3, MMRM): −1.9 (1.04)
- MADRS Total Score Change from Baseline LSMean Difference (SE) Treatment-Placebo ([1]; fITT Analysis Set, Treatment Week 4, MMRM): −2.5 (1.04)
- MADRS Total Score Change from Baseline LSMean Difference (SE) Treatment-Placebo ([1]; fITT Analysis Set, Treatment Week 5, MMRM): −2.4 (1.05)
- MADRS Total Score Change from Baseline LSMean Difference (SE) Treatment-Placebo ([1]; fITT Analysis Set, Treatment Week 6, MMRM): −3.1 (1.05)
- MADRS Total Score: Mean Change to Placebo (SD pooled) ([1]; fITT, Treatment Week 4): −2.3 (7.02)
- MADRS total score: mean change from treatment baseline (SD) ([1]; fITT, Treatment Week 6): −9.7 (8.02)
- MADRS Total Score: Least Squares Mean Difference aticaprant vs placebo ([1]; fITT, Treatment Week 6, MMRM): −3.1
- MADRS: LSMeans difference estimate, supplementary MMRM analysis (COVID-19 impact) ([1]; fITT): −3.4
- SHAPS Total Score Change from Baseline LSMean Difference (SE) Treatment-Placebo ([2]; eITT Analysis Set, Treatment Week 1): −0.8
- SHAPS Total Score Change from Baseline LSMean Difference (SE) Treatment-Placebo ([2]; eITT Analysis Set, Treatment Week 3): −1.4
- SHAPS Total Score Change from Baseline LSMean Difference (SE) Treatment-Placebo ([2]; eITT Analysis Set, Treatment Week 4): −1.4
- SHAPS Total Score Change from Baseline LSMean Difference (SE) Treatment-Placebo ([2]; eITT Analysis Set, Treatment Week 5): −0.5
- SHAPS Total Score Change from Baseline LSMean Difference (SE) Treatment-Placebo ([2]; eITT Analysis Set, Treatment Week 6): −0.7
- SHAPS Total Score Effect Size ([2]; eITT Analysis Set, Treatment Week 6, negative favors aticaprant): −0.07
- SHAPS total score: mean change from treatment baseline (SD) ([2]; eITT, Treatment Week 6): −4.6 (6.23)
- SHAPS total score: observed effect size ([2]; eITT, Treatment Week 6): 0.07
- Frequency of Subjects: No Anhedonia (SHAPS Total Score < 20) ([2]; fITT Analysis Set, Baseline/Day 22 (before treatment), N 83): 1.2%
- Frequency of Subjects: No Anhedonia (SHAPS Total Score < 20) ([2]; fITT Analysis Set, Treatment Baseline, N 83 (Table 64)): 1.2%
- SHAPS Total Score Change from Baseline LSMean Difference (SE) Treatment-Placebo ([2]; fITT Analysis Set, Treatment Week 1): −1.0 (0.72)
- SHAPS Total Score Change from Baseline LSMean Difference (SE) Treatment-Placebo ([2]; fITT Analysis Set, Treatment Week 3): −1.4 (0.73)
- SHAPS Total Score Change from Baseline LSMean Difference (SE) Treatment-Placebo ([2]; fITT Analysis Set, Treatment Week 4): −1.6 (0.73)
- SHAPS Total Score Mean Change from Baseline (SD) [2, 5]: −4.3 (5.70)
- SHAPS Total Score Change from Baseline LSMean Difference (SE) Treatment-Placebo [2, 5]: −0.8 (0.73)
- SHAPS Total Score Change from Baseline LSMean Difference (SE) Treatment-Placebo ([2]; fITT Analysis Set, Treatment Week 6): −0.8 (0.73)
- Frequency of Subjects: High Level of Anhedonia (SHAPS Total Score >= 38) [2, 6]: 26
- Frequency of Subjects: Low Level of Anhedonia Score < 20) Total Score < 38) [2, 6]: 34
- Frequency of Subjects: No Anhedonia (SHAPS Total) [2, 6]: 0
- Frequency of Subjects: High Level of Anhedonia (SHAPS Total Score >= 38) [2, 7]: 8
- Frequency of Subjects: Low Level of Anhedonia Score < 20) Total Score < 38) [2, 7]: 48
- Frequency of Subjects: No Anhedonia (SHAPS Total) [2, 7]: 3
- Frequency of Subjects: Anhedonia (SHAPS Total Score >= 20) [2, 8]: 82
- Frequency of Subjects: No Anhedonia (SHAPS Total Score < 20) [2, 8]: 1
- Frequency of Subjects: High Level of Anhedonia (SHAPS Total Score >= 38) [2, 9]: 30
- Frequency of Subjects: Low Level of Anhedonia (20 >= SHAPS Total Score < 38) [2, 9]: 52
- Frequency of Subjects: No Anhedonia (SHAPS Total Score < 20) ([2]; number of subjects, fITT Analysis Set, Treatment Baseline, N 83 (Table 64)): 1
